Tested on: CCL2
Test: ELISA of CCL2 levels in the supernatant of keratinocyte cultures treated with EGFR inhibitor PD168393 and/or HDAC inhibitors
Format: cell-based
Settings: then PD168393 24 hours (FIG. 1)
Source text: Results are expressed as the mean of three independent experiments ±SD.

Compound	effect on PD168393-induced up-regulation of CCL2 levels (keratinocytes pre-treated with HDAC inhibitor for 2 hours)	effect on PD168393-induced up-regulation of CCL2 levels (keratinocytes pre-treated with HDAC inhibitor 5 nM for 2 hours)
CCCC(CCC)C(=O)O [valproic acid]	suppressed	
CC(/C=C/C(=O)NO)=C\[C@@H](C)C(=O)c1ccc(N(C)C)cc1 [trichostatin A]		suppressed

— patent US20120114745A1, “METHOD FOR TREATING OR AMELIORATING MUCOCUTANEOUS OR OCULAR TOXICITIES” (priority 2009, published 2012)
